Experimental data as given in PubChem BioAssay (NCI).
Values joined by “and” are separate entries in the source; they are usually repeats but may differ in a detail not shown here. Identical values can stand only once.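 Cultured in 96-well plates, cells were exposed to test compound for 48 hours across five concentrations. At the GI50, growth is halved. At the TGI there is no net growth.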

Tests used:
Experiment in all cases: DTP human tumour cell line panel, 48 h
RXF 393 renal = tested on: RXF 393 renal
HT29 colon = tested on: HT29 colon
IGROV1 ovarian = tested on: IGROV1 ovarian
HCC-2998 colon = tested on: HCC-2998 colon
SK-MEL-2 melanoma = tested on: SK-MEL-2 melanoma
NCI-H522 lung = tested on: NCI-H522 lung
SF-295 CNS = tested on: SF-295 CNS
SF-268 CNS = tested on: SF-268 CNS
HCT-15 colon = tested on: HCT-15 colon
SN12C renal = tested on: SN12C renal

| Structure (SMILES) | TGI (RXF 393 renal) | TGI (HT29 colon) | TGI (IGROV1 ovarian) | TGI (HCC-2998 colon) | TGI (SK-MEL-2 melanoma) [µM] | TGI (NCI-H522 lung) | TGI (SF-295 CNS) | TGI (SF-268 CNS) | TGI (HCT-15 colon) | TGI (SN12C renal) | GI50 (RXF 393 renal) [µM] | GI50 (HT29 colon) [µM] | GI50 (IGROV1 ovarian) [µM] | GI50 (HCC-2998 colon) [µM] | GI50 (SK-MEL-2 melanoma) [µM] | GI50 (NCI-H522 lung) [µM] | GI50 (SF-295 CNS) [µM] | GI50 (SF-268 CNS) [µM] | GI50 (HCT-15 colon) [µM] | GI50 (SN12C renal) [µM] |
| --- | --- | --- | --- | --- | --- | --- | --- | --- | --- | --- | --- | --- | --- | --- | --- | --- | --- | --- | --- | --- |
| O=[N+]([O-])c1ccc2nc(=S)[nH]n2c1 | > 100 µM | > 100 µM | > 100 µM | > 100 µM | > 100 | > 100 µM | > 100 µM | > 100 µM | > 100 µM | > 100 µM | – | – | – | – | – | – | – | – | – | – |
| COc1c(OC2OC(CO)C(O)C(O)C2O)cc2c(c1OC)-c1ccc(OC)c(=O)cc1[C@@H](NC(C)=O)CC2 (some centres not stated) | > 90.4 µM | > 100 µM | > 100 µM | > 100 µM | > 100 | 99.3 µM | > 100 µM | > 56.2 µM | > 100 µM | > 100 µM | – | – | – | – | – | – | – | – | – | – |
| CCOc1ccccc1NC(=O)C(=O)c1c(O)c2ccc(O)cc2oc1=O | > 100 µM | > 100 µM | > 100 µM | > 100 µM | > 100 | > 100 µM | > 100 µM | > 100 µM | > 100 µM | > 100 µM | – | – | – | – | – | – | – | – | – | – |
| CCCNC(=O)Nc1ccc2c(c1)Cc1cc(N(CCCl)CCCl)ccc1-2 | 34.2 µM | 17.8 µM | 50.6 µM | 67.6 µM | 62.9 | 41 µM | 44.2 µM | > 100 µM | > 100 µM | > 100 µM | – | – | – | – | – | – | – | – | – | – |
| CCCCCCC(=O)CC(=O)C(=O)Nc1ccccc1C | > 100 µM | > 100 µM | > 100 µM | > 100 µM | > 100 | > 100 µM | > 100 µM | > 100 µM | > 66.3 µM | > 100 µM | – | – | – | – | – | – | – | – | – | – |
| CCC(=O)Oc1ccc(/C=N/NC(N)=S)nc1 | > 100 µM | > 100 µM | > 100 µM | > 100 µM | > 100 | 76.5 µM | > 100 µM | > 100 µM | > 100 µM | > 100 µM | 2.93 | 19.3 | 9.94 | 13.6 | 33 | 4.58 | 12.3 | 3.46 | 6.38 | 3.75 |
| NC(N)=NC(N)=NCc1ccco1 | > 1250 µM | > 1250 µM | > 1250 µM | > 1250 µM | > 1250 | > 1250 µM | > 1250 µM | > 1250 µM | > 1250 µM | > 1250 µM | > 1250 | > 1250 | 854 | > 1250 | > 1250 | > 1250 | 321 | > 1250 | > 1250 | > 1250 |
| Cn1c(=O)c2[nH]cnc2n(C)c1=O.[CH2-]C(Cc1cccc2cc(C(=O)O)c(=O)oc12)OC.[Hg+2].[OH-] (configuration not stated) | 35.9 µM | 32 µM | 31.4 µM | 39.2 µM | 31.5 | 32.5 µM | 38 µM | 30.6 µM | 30.9 µM | 32.5 µM | 19.3 | 17.1 | 17.3 | 23 | 17.4 | 15.1 | 19.4 | 16.9 | 16.6 | 18 |
| CC1CCC2[C@@H](C)COC3O[C@]4(C)CCC1C32OO4 (some centres not stated) | > 100 µM | > 100 µM | > 100 µM | > 100 µM | > 100 | > 100 µM | > 100 µM | > 100 µM | > 100 µM | > 100 µM | – | – | – | – | – | – | – | – | – | – |
| CCOC(=O)C1C(=O)c2cccc(OC)c2C2COC(=O)N12 (configuration not stated) | > 100 µM | > 100 µM | > 100 µM | > 100 µM | > 100 | > 100 µM | > 100 µM | > 100 µM | > 100 µM | > 100 µM | – | – | – | – | – | – | – | – | – | – |
| COc1ccc([Se]c2ccc(OC)cc2)cc1 | > 100 µM | > 100 µM | > 100 µM | > 100 µM | > 100 | > 100 µM | > 100 µM | > 100 µM | > 100 µM | > 100 µM | – | – | – | – | – | – | – | – | – | – |
| COC(=O)C(=O)C(C(=O)C(=O)Nc1nc(=S)[nH][nH]1)c1nc2ccc([N+](=O)[O-])cc2[nH]c1=O (configuration not stated) | > 100 µM | > 100 µM | > 100 µM | > 100 µM | > 100 | > 100 µM | > 100 µM | > 100 µM | > 100 µM | > 100 µM | – | – | – | – | – | – | – | – | – | – |
| CCC(=O)OCN1C(=O)C=CC1=O | 30.6 µM and 30.5 µM | 40.8 µM and 35.9 µM | 40.5 µM and 34.2 µM | 34.1 µM and 33.6 µM | 29.3 | 4.64 µM and 4.58 µM | 35.2 µM and > 66.6 µM | 36.9 µM and 41.3 µM | 39.7 µM and 56.8 µM | 30.5 µM and 35.6 µM | – | – | 21.4 | – | – | 2.27 | 18.4 | 19.1 | 20.1 | 16.2 |
| COc1cc2c3c(n(CCCN4CCN(CCO)CC4)c(=O)c2cc1OC)-c1cc2c(cc1C3=O)OCO2 | 30.9 µM | 15.9 µM | > 50.9 µM | 20.4 µM | > 100 | > 51.2 µM | 25.2 µM | > 100 µM | > 61.2 µM | > 100 µM | 13.4 | 3.06 | > 34.2 | 6.25 | > 100 | > 33 | 1.55 | 5.23 | 18.1 | > 100 |
| CC(C)CC1NC(=O)C(C(C)C)NC(=O)CC(C)COC(=O)C(CC(C)C)N(C)C(=O)C(C(C)C)NC(=O)C(C(C)C)OC1=O (configuration not stated) | 35.2 µM | > 50 µM | > 50 µM | > 50 µM | > 50 | > 50 µM | > 50 µM | > 50 µM | > 50 µM | > 50 µM | – | – | – | – | – | – | – | – | – | – |
| CC1SC(c2cccc(Cl)c2)N(NC(=O)C(O)c2ccccc2)C1=O (configuration not stated) | > 100 µM | > 100 µM | > 100 µM | > 100 µM | > 100 | > 100 µM | > 100 µM | > 100 µM | > 100 µM | > 100 µM | 80.6 | > 100 | 68.7 | > 100 | > 100 | > 100 | > 100 | > 100 | > 100 | > 100 |
| COc1ccc(-c2cc(=O)c3cccnc3[nH]2)cc1 | > 100 µM | 38.4 µM | > 100 µM | > 100 µM | > 100 | > 100 µM | > 100 µM | > 100 µM | > 100 µM | > 100 µM | – | – | – | – | – | – | 65 | – | – | – |
